Test results from ChEMBL document CHEMBL4190383, “Hit discovery of Mycobacterium tuberculosis inosine 5'-monophosphate dehydrogenase, GuaB2, inhibitors” (Bioorg Med Chem Lett, 2018).
Converted amounts (≈) assume the structure as drawn. The source made the active and inactive calls. The calls are words filed in the database; no cut-off is given here.

Experiments:
[1] = test system: Mycobacterium tuberculosis; assay: Antimicrobial activity against Mycobacterium tuberculosis H37Rv by alamar blue assay; type: functional
[2] = test system: Mycobacterium tuberculosis; assay: Inhibition of Mycobacterium tuberculosis GuaB2 at 50 uM
[3] = Inhibition of Mycobacterium tuberculosis GuaB2
[4] = target: Inosine-5'-monophosphate dehydrogenase 2 (Homo sapiens) (UniProt P12268); assay: Inhibition of human IMPDH2 at 10 uM
[5] = test system: Mycobacterium tuberculosis; assay: Antimicrobial activity against Mycobacterium tuberculosis SRMV2.6 H37Rv by alamar blue assay; type: functional
[6] = Octanol/water partition coefficient , logP of the compound; type: physicochemical
Candida albicans = assay: Growth inhibition of Candida albicans at 32 ug/ml; type: functional; details: read-out: GI
Pseudomonas aeruginosa = assay: Growth inhibition of Pseudomonas aeruginosa at 32 ug/ml; type: functional; details: read-out: GI
Cryptococcus neoformans = assay: Growth inhibition of Cryptococcus neoformans var. grubii at 32 ug/ml; type: functional; details: read-out: GI
Acinetobacter baumannii = assay: Growth inhibition of Acinetobacter baumannii at 32 ug/ml; type: functional; details: read-out: GI
Klebsiella pneumoniae = assay: Growth inhibition of Klebsiella pneumoniae at 32 ug/ml; type: functional; details: read-out: GI
Staphylococcus aureus = assay: Growth inhibition of methicillin-resistant Staphylococcus aureus at 32 ug/ml; type: functional; details: read-out: GI
Escherichia coli = assay: Growth inhibition of Escherichia coli at 32 ug/ml; type: functional; details: read-out: GI

Sequence of Inosine-5'-monophosphate dehydrogenase 2 (Homo sapiens) (P12268 2-514 limits assumed): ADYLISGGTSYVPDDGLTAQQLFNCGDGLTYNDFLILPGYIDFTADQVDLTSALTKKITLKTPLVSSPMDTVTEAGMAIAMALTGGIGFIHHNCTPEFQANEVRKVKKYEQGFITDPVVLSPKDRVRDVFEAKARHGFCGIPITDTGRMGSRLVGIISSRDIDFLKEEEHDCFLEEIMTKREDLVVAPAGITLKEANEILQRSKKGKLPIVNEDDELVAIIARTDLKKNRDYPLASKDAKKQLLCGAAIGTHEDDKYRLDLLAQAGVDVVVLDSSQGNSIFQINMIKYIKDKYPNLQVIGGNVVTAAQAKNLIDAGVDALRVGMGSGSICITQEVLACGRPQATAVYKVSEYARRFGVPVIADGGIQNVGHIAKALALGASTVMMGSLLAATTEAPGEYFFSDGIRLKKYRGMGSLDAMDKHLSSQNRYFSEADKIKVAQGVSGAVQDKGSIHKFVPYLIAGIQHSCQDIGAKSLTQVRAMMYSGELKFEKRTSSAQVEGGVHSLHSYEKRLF

Structure (SMILES) | MIC90 [1] [µM] | other results
COc1ccc(NC(=O)CC/C(C)=C/Cc2c(O)c3c(c(C)c2OC)COC3=O)cc1 | > 100 | 
COc1cc(-c2oc3ccccc3c(=O)c2OCC(=O)Nc2ccc3c(c2)COC3=O)cc(OC)c1OC | > 100 | 
N#Cc1ccc(Cn2nncc2COc2cccc3ccccc23)cc1 | 100 (≈ 34 µg/mL) | inhibition [2]: 43.5%; IC50 [3]: 175 µM; inhibition [4]: 14.8%; MIC90 [5]: > 100 µM
Cc1nnc(-c2ccc(OCc3cnnn3Cc3ccc(F)cc3)cc2)o1 | > 100 | 
COc1cccc(NC(=O)Nn2c(C)nc3sccc3c2=O)c1 | > 100 | 
O=C(COc1cc(Cl)ccc1Oc1ccc(Cl)cc1Cl)Nc1ccc2c(c1)COC2=O | > 100 | 
O=C(COc1ccc(C(=O)/C=C/c2ccc([N+](=O)[O-])cc2)cc1)Nc1ccc2c(c1)COC2=O | > 100 | 
Fc1ccccc1Cn1nncc1COc1ccc2ccccc2c1 | > 100 | 
COc1ccc2[nH]c(S(=O)(=O)Cc3ncc(C)c(OC)c3C)nc2c1 [OMEPRAZOLE SULFONE] | > 100 | 
O=C1OCc2cc(NC(=O)c3cccnc3Cl)ccc21 | > 100 | 
CC(=O)C1CCN(CC(=O)Nn2c(C)nc3sccc3c2=O)CC1 | > 100 | 
Cc1ccc(NC(=O)Nn2c(C)nc3sccc3c2=O)cc1Cl | > 100 | 
CC(C(=O)Nc1ccc2c(c1)COC2=O)c1cccc(C(=O)c2ccccc2)c1 (centres undefined) | 100 (≈ 38.5 µg/mL) | 
CC(C(=O)Nc1ccc2c(c1)COC2=O)c1ccc(-c2ccccc2)c(F)c1 (centres undefined) | > 100 | 
O=C(COc1ccc(C(=O)/C=C/c2cccs2)cc1)Nc1ccc2c(c1)COC2=O | > 100 | 
COc1cc(C(=O)/C=C/c2cc(OC)c(OC)c(OC)c2)ccc1OCC(=O)Nc1ccc2c(c1)COC2=O | > 100 | 
Clc1cccc(Cn2nncc2COc2ccc3ccccc3c2)c1 | > 100 | 
Clc1ccc(Cn2nncc2COc2ccc3ccccc3c2)cc1 | > 100 | 
O=C(O)CCC(=O)NCc1ccc2c(c1)OCO2 | > 100 | 
O=C(O)CCCC(=O)Nc1ccc(N2CC3(COC3)C2)c(F)c1 | > 100 | 
N#Cc1ccc(Cn2nncc2COc2ccc3ccccc3c2)cc1 | > 100 | 
O=C(COc1ccc2ccccc2c1)Nc1ccc2c(c1)COC2=O | > 100 | 
Cc1nnc(-c2ccc(OCc3cnnn3Cc3ccc(Cl)cc3)cc2)o1 | > 100 | 
CCOC(=O)C1CCN(CC(=O)Nc2ccc3c(c2)COC3=O)CC1 | > 100 | 

Structure (SMILES) | MIC90 [1] [µM] | other results
Cc1nc2sccc2c(=O)n1NC(=O)/C=C/c1ccccc1 | > 100 | 
Cc1nc2sccc2c(=O)n1NC(=S)Nc1ccccc1F | > 100 | 
O=C1OCc2cc(NS(=O)(=O)c3ccc([N+](=O)[O-])cc3)ccc21 | > 100 | 
Cc1nc2sccc2c(=O)n1NC(=O)Nc1ccc2c(c1)OCO2 | > 100 | 
O=C(O)CCCC(=O)N1CCn2c(nnc2C(F)(F)F)C1 | > 100 | 
Fc1ccccc1NC(=S)Nc1ccc(-c2ccccc2Cl)cn1 | > 100 | 
Cc1cc(OCC(=O)Nc2ccc3c(c2)COC3=O)ccc1[N+](=O)[O-] | > 100 | 
COc1ccc(-c2ccc(NC(=O)CCC(=O)O)cc2)cn1 | > 100 | 
O=C(O)CNC(=O)[C@@H]1C[C@H]1c1ccccc1 | > 100 | 
COc1ccc(NC(=O)Nn2c(C)nc3sccc3c2=O)cc1 | > 100 | 
COc1ccccc1NC(=O)Nn1c(C)nc2sccc2c1=O | > 100 | 
COC(=O)c1ccc(OCC(=O)Nc2ccc3c(c2)COC3=O)cc1 | > 100 | 
COc1cc(/C=C/C(=O)c2cccc(OCC(=O)Nc3ccc4c(c3)COC4=O)c2)cc(OC)c1OC | > 100 | 
O=C(O)/C=C\C(=O)NCc1ccccc1 | > 100 | 
Cc1ccc2nc(NC(=O)CCC(=O)O)sc2c1 | > 100 | 
COc1cccc(NC(=O)Nn2c(C)nc3ccsc3c2=O)c1 | > 100 | 
Cc1nc2sccc2c(=O)n1NC(=O)Nc1ccc(F)cc1 | > 100 | 
O=C(O)CCCC(=O)Nc1cc(-c2ccco2)[nH]n1 | > 100 | 
CC1CC(NS(=O)(=O)c2ccc(NC(=O)CCC(=O)O)cc2)=NO1 (centres undefined) | > 100 | 
COc1ccc(NC(=O)Nc2ccc(-c3cnco3)cc2)cc1 | > 100 | 
Cc1ccc(CNC(=O)/C=C\C(=O)O)cc1 | > 100 | 
COc1cccc(Cn2nncc2COc2ccc3ccccc3c2)c1 | 50 (≈ 17.3 µg/mL) | inhibition [2]: 52.4%; inhibition [4]: 24.9%; MIC90 [5]: > 100 µM
O=C(O)COCC(=O)Nc1ccccc1C(=O)O | > 100 | 
O=C(O)/C=C\C(=O)NC12CC3CC(CC(C3)C1)C2 | > 100 | 

Structure (SMILES) | MIC90 [1] [µM] | other results
Fc1ccccc1NC(=S)Nc1ccc(-c2cccc(Cl)c2)cn1 | > 100 | 
CC(C)Cc1ccc(C(C)C(=O)Nc2ccc3c(c2)COC3=O)cc1 (centres undefined) | > 100 | 
O=C(O)CCC(=O)NCC1(N2CCOCC2)CCCCCC1 | > 100 | 
Cc1nnc(-c2ccc(OCc3cnnn3Cc3ccccc3F)cc2)o1 | 100 (≈ 36.5 µg/mL) | logP [6]: 2.5 to 3.5; inhibition [2]: 71%; inhibition [4]: 0.1%; inhibition of growth at 32 µg/mL (Candida albicans): 2.24%; inhibition of growth at 32 µg/mL (Pseudomonas aeruginosa): 0.96%; inhibition of growth at 32 µg/mL (Cryptococcus neoformans): -88.2%; inhibition of growth at 32 µg/mL (Acinetobacter baumannii): -8.76%; inhibition of growth at 32 µg/mL (Klebsiella pneumoniae): -2.49%; inhibition of growth at 32 µg/mL (Staphylococcus aureus): 7.55%; inhibition of growth at 32 µg/mL (Escherichia coli): -5.41%; MIC90 [5]: > 100 µM
Cc1nnc(-c2ccc(OCc3cnnn3Cc3cccc(Cl)c3)cc2)o1 | 50 (≈ 19.1 µg/mL) | inhibition [2]: inactive; inhibition [4]: 0.1%; inhibition of growth at 32 µg/mL (Candida albicans): -0.27%; inhibition of growth at 32 µg/mL (Pseudomonas aeruginosa): 5.84%; inhibition of growth at 32 µg/mL (Cryptococcus neoformans): -76.2%; inhibition of growth at 32 µg/mL (Acinetobacter baumannii): -12.1%; inhibition of growth at 32 µg/mL (Klebsiella pneumoniae): 2.15%; inhibition of growth at 32 µg/mL (Staphylococcus aureus): 10.3%; inhibition of growth at 32 µg/mL (Escherichia coli): -5.62%; MIC90 [5]: > 100 µM
Clc1ccc(Cn2nncc2COc2ccc3ccccc3c2)c(Cl)c1 | > 100 | 
COc1cccc(Cn2nncc2COc2ccc(-c3nnc(C)o3)cc2)c1 | 50 (≈ 18.9 µg/mL) | inhibition [2]: 35%; inhibition [4]: 0.1%; inhibition of growth at 32 µg/mL (Candida albicans): 3.07%; inhibition of growth at 32 µg/mL (Pseudomonas aeruginosa): 1.44%; inhibition of growth at 32 µg/mL (Cryptococcus neoformans): -59.4%; inhibition of growth at 32 µg/mL (Acinetobacter baumannii): -15.3%; inhibition of growth at 32 µg/mL (Klebsiella pneumoniae): -4.35%; inhibition of growth at 32 µg/mL (Staphylococcus aureus): 5.5%; inhibition of growth at 32 µg/mL (Escherichia coli): -7.43%; MIC90 [5]: 100 µM (≈ 37.7 µg/mL)
COc1c(C)c2c(c(O)c1C/C=C(\C)CCC(=O)N[C@@H](C)c1ccccc1)C(=O)OC2 | > 100 | 
Cc1nnc(-c2ccc(OCc3cnnn3Cc3ccc(Cl)cc3Cl)cc2)o1 | > 100 | 
Cc1nnc(-c2ccc(OCc3cnnn3Cc3ccc(C#N)cc3)cc2)o1 | > 100 | 
COc1ccc2[nH]c(S(=O)(=O)Cc3c(C)c(OC)c(C)c[n+]3[O-])nc2c1 | > 100 | 
Cc1nnc(-c2ccc(OCc3cnnn3Cc3ccc(-c4ccccc4)cc3)cc2)o1 | 100 (≈ 42.3 µg/mL) | logP [6]: > 4.5; inhibition [2]: 72.6%; inhibition [4]: 0.1%; inhibition of growth at 32 µg/mL (Candida albicans): -0.24%; inhibition of growth at 32 µg/mL (Pseudomonas aeruginosa): 7.93%; inhibition of growth at 32 µg/mL (Cryptococcus neoformans): -70.2%; inhibition of growth at 32 µg/mL (Acinetobacter baumannii): -14.1%; inhibition of growth at 32 µg/mL (Klebsiella pneumoniae): 2.97%; inhibition of growth at 32 µg/mL (Staphylococcus aureus): 14%; inhibition of growth at 32 µg/mL (Escherichia coli): -7.2%; MIC90 [5]: 100 µM (≈ 42.3 µg/mL)
O=C(Cn1c(-c2ccncc2)nc2cc(Br)cnc21)Nc1cccc2ccccc12 | > 100 | 
Cc1ccccc1NC(=S)Nc1ccc(-c2cc(Cl)cc(Cl)c2)cn1 | > 100 | 
O=C(COc1cccc2ccccc12)Nc1ccc2c(c1)COC2=O | > 100 | 
Cc1nc2sccc2c(=O)n1NC(=O)Nc1ccc([N+](=O)[O-])cc1 | > 100 | 
COc1ccc(NC(=O)Nn2c(C)nc3ccsc3c2=O)cc1 | > 100 | 
CC(=O)c1ccc(OCC(=O)Nn2c(C)nc3sccc3c2=O)cc1 | > 100 | 
O=C(CNc1ccc(F)cc1)Nc1ccc2c(c1)COC2=O | > 100 | 
Fc1ccc(Cn2nncc2COc2ccc3ccccc3c2)cc1 | > 100 | 
Cc1nc2sccc2c(=O)n1NC(=O)Nc1cccc([N+](=O)[O-])c1 | > 100 | 
COc1cc(NC(=O)Nn2c(C)nc3sccc3c2=O)cc(OC)c1 | > 100 | 
